Measurements reported in PMC8760490, “Discovery of novel furanylbenzamide inhibitors that target oncogenic tyrosine phosphatase SHP2 in leukemia cells” (The Journal of Biological Chemistry, 2021).

Columns and labels:
[1] = system: phospho-ERK1/2 (p-ERK1/2) in MOLM-13 AML cells; assay: p-ERK1/2 immunoblot, MOLM-13; format: cell-based; settings: 3 h; SBI-4668 3, 10, 30 μM; RMC-4550 1 μM
Procedure: (§1) Because SHP2 activity is critical for ERK activation, we used phospho-ERK1/2 (p-ERK1/2) as a more direct readout of SHP2 inhibitor efficacy. […] This p-ERK rebound in MOLM-13 cells treated with RMC-4550 is reminiscent of previously reported data from human hepatoma Hep3B cells treated with SHP099 ([34]). We also tested the effects of SBI-4668 or RMC-4550 on two patient-derived AML samples (Fig. 4F).
Cells cultured in RPMI medium were treated as indicated in the legends to the figures. Total protein extracts were prepared in modified radioimmunoprecipitation assay lysis buffer (25 mM Tris–HCl, pH 7.4, 10% glycerol, 0.2% Triton X-100, 150 mM NaCl, 2 mM Na3VO4, and 1 mM EDTA) containing a protease inhibitor cocktail (Roche Applied Science). Equal amounts of protein were separated on 4 to 12% (p-ERK1/2 blots) or 4 to 20% (SHP2 blots) Bis–Tris gels by SDS-PAGE and transferred to nitrocellulose (p-ERK1/2 blots) or 0.2 μm polyvinylidene fluoride (SHP2 blots) membranes. Membranes were blocked in 5% dry milk (Bio-Rad) in Tris-buffered saline–Tween-20 (TBS–T) (0.1% v/v) for 1 h at RT. Protein-bound membranes were incubated with indicated primary antibody overnight at 4 °C. After washing three times with TBS-T, membranes were incubated for 1 h with horseradish peroxidase–conjugated secondary antibody and then visualized by an ECL Prime detection system (GE Healthcare). Immunoblotting experiments were carried out at least three times, and representative images are shown. Densitometric quantitation of immunoblots was performed using Image Studio Lite Software (LI-COR). Changes of phosphorylated ERK1/2 to total ERK1/2 ratios are expressed as percentage of the vehicle-treated controls. The following antibodies were used: Phospho-Erk1/2 Ab (catalog no.: 9101S; Cell Signaling); total Erk1/2 Ab (catalog no.: 9102S; Cell Signaling); SHP2 Ab (catalog no.: A301-544A; lot no.: 1; Bethyl); and GAPDH (14C10) mAb (catalog no.: 2118S; lot no.: 14; Cell Signaling).

[2] = system: patient-derived AML cells; assay: Viability of patient-derived AML cells; format: cell-based, human; settings: 10 μM; 2, 4 or 6 days in culture
Excerpt: as §1
Patient-derived AML cells were obtained from Carol Burian and Dr James Mason (Scripps MD Anderson Center) under approved Institutional Review Board protocol 13-6180. […] Final peripheral blood mononuclear cells were resuspended in Bambanker serum-free freezing medium (Wako Pure Chemical Industries, Ltd) and stored frozen before cell viability was assessed as described later.
(§2) Viability of AML and esophageal carcinoma cells was assessed using the ATP-depletion assay CellTiter-Glo (Promega). Cells were harvested at 1 × 10^6/ml to 2 × 10^6 cells/ml with cell numbers determined by trypan blue using the Countess Cell counter (Thermo Scientific) and resuspended in culture media. […] Luminescence was read on a Tecan Spark Multimode Microplate Reader, and data were analyzed using GraphPad Prism software.

[3] = system: U-937 AML cells (G60R oncogenic mutation in SHP2); assay: Cell viability (CellTiter-Glo), U-937; format: cell-based; settings: 3 days, 0.123 to 30 μM
Excerpt: Oncogenic gain-of-function mutations in SHP2 drive leukemogenesis in a significant number of leukemia patients. However, because of their unique mechanism of action, the existing SHP2 allosteric inhibitors lack activity against the most common SHP2 oncogenic variants. Thus, we tested whether our inhibitors could inhibit the growth of leukemia cells expressing oncogenic SHP2 variants. […] Thus, we tested both SBI-4668 and RMC-4550 on U-937 AML cells, which harbor a G60R oncogenic mutation in SHP2. We treated cells with either SBI-4668 or RMC-4550 at various concentrations, ranging from 0.123 to 30 μM (Fig. 5A). […] We also assessed the effects of SBI-4668 and RMC-4550 on ERK1/2 activation in the SHP2 mutant U-937 cell line. […]
as §2

[4] = system: phospho-ERK1/2 (p-ERK1/2) in U-937 AML cells; assay: p-ERK1/2 immunoblot, U-937; format: cell-based; settings: SBI-4668 1, 3, 10, 30 μM, RMC-4550 1 μM
Excerpt: Oncogenic gain-of-function mutations in SHP2 drive leukemogenesis in a significant number of leukemia patients. However, because of their unique mechanism of action, the existing SHP2 allosteric inhibitors lack activity against the most common SHP2 oncogenic variants. Thus, we tested whether our inhibitors could inhibit the growth of leukemia cells expressing oncogenic SHP2 variants. […] Thus, we tested both SBI-4668 and RMC-4550 on U-937 AML cells, which harbor a G60R oncogenic mutation in SHP2. We treated cells with either SBI-4668 or RMC-4550 at various concentrations, ranging from 0.123 to 30 μM (Fig. 5A). […] We also assessed the effects of SBI-4668 and RMC-4550 on ERK1/2 activation in the SHP2 mutant U-937 cell line. Similar to the immunoblot experiments described for MOLM-13 cells above, U-937 AML cells were treated with either vehicle control (DMSO), SBI-4668 (1, 3, 10, or 30 μM), or with RMC-4550 (1 μM) for 24 h and processed for p-ERK1/2 immunoblot analysis (Fig. 5B).
Cells cultured in RPMI medium were treated as indicated in the legends to the figures. […] Densitometric quantitation of immunoblots was performed using Image Studio Lite Software (LI-COR). Changes of phosphorylated ERK1/2 to total ERK1/2 ratios are expressed as percentage of the vehicle-treated controls. […]

[5] = system: mutant SHP2 (E76K) in live cells; parameters: method as in PMID 31953320, PMID 32744526; settings: cellular thermal shift assay; cited from earlier work

IC50 [3]: 33 µM
Compound: Cc1nc(N2CCC3(CC2)CO[C@@H](C)[C@H]3N)c(CO)nc1-c1cccc(Cl)c1Cl [RMC-4550, reference compound]
p-ERK1/2 levels, MOLM-13, 3 h [1]: highly effective in impeding ERK1/2 activation | growth of two patient-derived AML samples [2]: only affected the growth of sample 2 | p-ERK1/2 levels, U-937, 24 h [4]: not detectable | cellular target engagement with mutant SHP2 [5]: greatly decreased cellular target engagement
